# Source: article PMC8201735 (BMC Pharmacology & Toxicology, 2021)
# Values joined by “and” are separate entries in the source; they are usually repeats but may differ in a detail not shown here. Equal entries are not always repeated.
# How the values were obtained:
# [1] = tested on: subjects with T2DM; details: RE 500 mg BID and metformin 500 mg BID for 3 days; cited from earlier work
# [2] = tested on: subjects with T2DM; assay: Oral glucose tolerance test (75 g): weighted mean plasma glucose and insulin; assay type: in vivo, human
# Experimental: Oral glucose tolerance testing was performed on Day 1 and Day 13 using a 75 g oral glucose solution. Blood samples for the measurement of insulin and glucose were taken immediately before drug dosing (within 5 min of drug dosing), and at 30 min, 1, 1.5, 2, 3, 4, and 6 h following drug dosing.
# [3] = tested on: subjects with T2DM; assay: Ambulatory blood pressure monitoring; assay type: in vivo, human; details: for Decrease in diastolic blood pressure at nighttime, Day 13, compared to placebo (metformin alone) / Decrease in systolic blood pressure at nighttime, Day 13, compared to placebo (metformin alone): stated as magnitude of decrease
# Experimental: The ambulatory blood pressure was monitored for […] during inpatient days (beginning Day 1 at 08.00, Day 2 at 08.00 and Day 13 at 08.00). The unit was programmed to take blood pressure readings every 10 min from 08.00 to 10.00, every 20 min from 10.00 to 22.00, and every 30 min from 22.00 to 08.00 the following morning.
# Descriptive statistics were used to summarize baseline demographics, safety data, and pharmacokinetic parameters. Geometric mean and % CVb (between-subject coefficient of variation) were calculated for all pharmacokinetic parameters except tmax. Comparisons of placebo with each active dose of RE were assessed in terms of change from baseline in fasting plasma lactate acid using repeated measures analysis of covariance model. The model included terms for baseline measurement, visit, treatment and visit-by-treatment interaction. The same model was applied to change from baseline in weighted means of day-time, night-time and 0–24 h of blood pressures. Within group treatment comparison was performed using mixed model on log transformed Cmax and AUC (0-last).
# [4] = tested on: subjects with T2DM; assay: Adverse event monitoring, RE co-administered with metformin for 13 days; assay type: in vivo, human; details: for Any AE: 13 days
# Text: The study was comprised of three phases; run-in, randomization, and treatment. […] In treatment phase the patients were considered in two cohorts. […] The adverse events monitoring included recording of any adverse event (AE) and serious adverse event (SAE) reported or observed during the entire study and follow-up period. All the subjects were counseled to inform study staff of any AEs that occurred during the study. Any abnormal laboratory findings (e.g., clinical chemistry, hematology, and urinalysis) or other abnormal assessments (e.g., ECGs, vital signs, physical examination) that were judged by the investigator as clinically significant were recorded as AEs or SAE.
# [5] = 24 h, RE 500 mg BID + metformin, N = 14
# [6] = 24 h, RE 750 mg BID + metformin, N = 14
# [7] = Daytime (10 am to 8 pm), RE 500 mg BID + metformin
# [8] = Daytime (10 am to 8 pm), RE 750 mg BID + metformin
# [9] = Nighttime (midnight to 6 am), RE 500 mg BID + metformin
# [10] = Nighttime (midnight to 6 am), RE 750 mg BID + metformin
# [11] = RE 500 mg BID + metformin, N = 16
# [12] = RE 750 mg BID + metformin, N = 17
smiles,measurement,setting,value
"CCOC(=O)OC[C@H]1O[C@@H](Oc2nn(C(C)C)c(C)c2Cc2ccc(OC(C)C)cc2)[C@H](O)[C@@H](O)[C@@H]1O [RE, remogliflozin etabonate]",Effect of RE on the steady-state plasma profiles of metformin,[1],no effect
same,Tolerability of concomitant administration,[1],well tolerated
same,"Weighted mean plasma glucose following OGTT, Mean (SD)","[2]; Day 1 (baseline), RE 500 mg + Metformin",13 mmol/L and 13.03 (1.929) mmol/L
same,"Weighted mean plasma glucose following OGTT, Mean (SD)","[2]; Day 1 (baseline), RE 750 mg + Metformin",11 mmol/L and 11.49 (3.536) mmol/L
same,"Weighted mean plasma glucose following OGTT, Mean (SD)","[2]; Day 13, RE 500 mg + Metformin",9 mmol/L and 9.45 (1.502) mmol/L
same,"Weighted mean plasma insulin following OGTT, Mean (SD)","[2]; Day 13, RE 500 mg + Metformin",142.15 (67.626) pmol/L
same,"Weighted mean plasma glucose following OGTT, Mean (SD)","[2]; Day 13, RE 750 mg + Metformin",8 mmol/L and 8.84 (1.656) mmol/L
same,"Weighted mean plasma insulin following OGTT, Mean (SD)","[2]; Day 13, RE 750 mg + Metformin",171.57 (74.178) pmol/L
same,"Weighted mean plasma glucose, change from baseline, Mean (SD)",[2]; RE 500 mg + Metformin,−3.50 (2.012) mmol/L
same,"Weighted mean plasma insulin, change from baseline, Mean (SD)",[2]; RE 500 mg + Metformin,−44.80 (52.746) pmol/L
same,"Weighted mean plasma glucose, change from baseline, Mean (SD)",[2]; RE 750 mg + Metformin,−2.77 (2.262) mmol/L
same,"Weighted mean plasma insulin, change from baseline, Mean (SD)",[2]; RE 750 mg + Metformin,−18.95 (47.360) pmol/L
same,"Ambulatory diastolic BP, adjusted mean change from baseline to Day 13 vs. placebo",[3]; [5],−2.0; p = 0.256 mmHg
same,"Ambulatory systolic BP, adjusted mean change from baseline to Day 13 vs. placebo",[3]; [5],−2.8; p = 0.303 mmHg
same,"Ambulatory diastolic BP, adjusted mean change from baseline to Day 13 vs. placebo",[3]; [6],−3.3; p = 0.062 mmHg
same,"Ambulatory systolic BP, adjusted mean change from baseline to Day 13 vs. placebo",[3]; [6],−4.0; p = 0.131 mmHg
same,"Ambulatory diastolic BP, adjusted mean change from baseline to Day 13 vs. placebo",[3]; [7],−1.8; p = 0.461 mmHg
same,"Ambulatory systolic BP, adjusted mean change from baseline to Day 13 vs. placebo",[3]; [7],−3.4; p = 0.291 mmHg
same,"Ambulatory diastolic BP, adjusted mean change from baseline to Day 13 vs. placebo",[3]; [8],−1.3; p = 0.586 mmHg
same,"Ambulatory systolic BP, adjusted mean change from baseline to Day 13 vs. placebo",[3]; [8],−2.4; p = 0.441 mmHg
same,"Ambulatory diastolic BP, adjusted mean change from baseline to Day 13 vs. placebo",[3]; [9],−6.5; p = 0.006 mmHg
same,"Ambulatory systolic BP, adjusted mean change from baseline to Day 13 vs. placebo",[3]; [9],−8.4; p = 0.020 mmHg
same,"Ambulatory diastolic BP, adjusted mean change from baseline to Day 13 vs. placebo",[3]; [10],−4.8; p = 0.043 mmHg
same,"Ambulatory systolic BP, adjusted mean change from baseline to Day 13 vs. placebo",[3]; [10],−7.1; p = 0.047 mmHg
same,"Decrease in diastolic blood pressure at nighttime, Day 13, compared to placebo (metformin alone)",[3]; RE 500 mg BID + metformin,6.5 mmHg
same,"Decrease in systolic blood pressure at nighttime, Day 13, compared to placebo (metformin alone)",[3]; RE 500 mg BID + metformin,8.4 mmHg
same,"Decrease in diastolic blood pressure at nighttime, Day 13, compared to placebo (metformin alone)",[3]; RE 750 mg BID + metformin,4.8 mmHg
same,"Decrease in systolic blood pressure at nighttime, Day 13, compared to placebo (metformin alone)",[3]; RE 750 mg BID + metformin,7.1 mmHg
same,Any AE,"[4]; RE 500 mg BID + metformin >=2000 mg/day, N = 16",6 (38%) N(%)
same,Dizziness,[4]; [11],1 (6%) N(%)
same,Nausea,[4]; [11],1 (6%) N(%)
same,Thirst,[4]; [11],0 N(%)
same,Post-therapy AEs,[4]; RE 750 mg + metformin group,no post-therapy AEs
same,Subjects with hypoglycemic laboratory events,"[4]; RE 750 mg + metformin group, moderate, resolved with sweets",one
same,Any AE,"[4]; RE 750 mg BID + metformin >=2000 mg/day, N = 17",4 (24%) N(%)
same,Diarrhoea,[4]; [12],1 (6%) N(%)
same,Dizziness,[4]; [12],1 (6%) N(%)
same,Dyslipidemia,[4]; [12],0 N(%)
same,Nausea,[4]; [12],1 (6%) N(%)
